The source made the active and inactive calls. The rule behind the calls is not given here.
Key:
[1] = tested on: PANC-1; test: Induction of apoptosis in human PANC-1 cells assessed as necrotic cells at 10 uM incubated for 48 hrs by Annexin V-FITC/PI staining based flow cytometry (reference value: 3.09 %); type: functional
[2] = tested on: PANC-1; test: Induction of apoptosis in human PANC-1 cells assessed as early apoptotic cells at 2.5 uM incubated for 48 hrs by Annexin V-FITC/PI staining based flow cytometry (reference value: 1.41 %); type: functional
[3] = tested on: PANC-1; test: Anti-migration activity in human PANC-1 cells at 2 uM in presence of JQ1 incubated for 24 hrs by wound healing assay; type: functional, cell-based
[4] = tested on: PANC-1; test: Induction of apoptosis in human PANC-1 cells assessed as necrotic cells at 5 uM incubated for 48 hrs by Annexin V-FITC/PI staining based flow cytometry (reference value: 3.09 %); type: functional
[5] = tested on: PANC-1; test: Induction of cell cycle arrest in human PANC-1 cells assessed as accumulation at G2 phase at 5 uM incubated for 24 hrs by PI staining based flow cytometry (reference value: 9.36 %); type: functional
[6] = Toxicity in BALB/c mouse xenografted with human PANC-1 cells assessed as pathological changes in heart at 40 mg/kg, ip for 4 weeks administered for 5 days consecutively and 2 days without treatment on every week by H and E staining based analysis; type: organism-based; settings: in vivo, 672 h
[7] = tested on: PANC-1; test: Induction of cell cycle arrest in human PANC-1 cells assessed as accumulation at G1 phase at 5 uM incubated for 24 hrs by PI staining based flow cytometry (reference value: 51.70 %); type: functional
[8] = tested on: PANC-1; test: Induction of cell cycle arrest in human PANC-1 cells assessed as accumulation at G2 phase at 10 uM incubated for 24 hrs by PI staining based flow cytometry (reference value: 9.36 %); type: functional
[9] = biological target: Bromodomain-containing protein 4 (Homo sapiens) (UniProt O60885); test: Inhibition of BRD4 in human PANC-1 cells at 2 uM incubated for 24 hrs in presence of JQ1 by immunofluorescence based analysis; type: cell-based
[10] = tested on: PANC-1; test: Induction of cell cycle arrest in human PANC-1 cells assessed as accumulation at S phase at 2 uM incubated for 24 hrs in presence of JQ1 by PI staining based flow cytometry (reference value: 38.94 %); type: functional
[11] = Toxicity in BALB/c mouse xenografted with human PANC-1 cells assessed as animal morbidity at 40 mg/kg, ip for 4 weeks administered for 5 days consecutively and 2 days without treatment on every week; type: organism-based; settings: in vivo, 672 h
[12] = Toxicity in BALB/c mouse xenografted with human PANC-1 cells assessed as body weight loss at 40 mg/kg, ip for 4 weeks administered for 5 days consecutively and 2 days without treatment on every week; type: organism-based; settings: in vivo, 672 h
[13] = tested on: PANC-1; test: Induction of apoptosis in human PANC-1 cells assessed as viable cells at 2.5 uM incubated for 48 hrs by Annexin V-FITC/PI staining based flow cytometry (reference value: 91.64 %); type: functional; settings: read-out: Activity
[14] = Toxicity in BALB/c mouse xenografted with human PANC-1 cells assessed as pathological changes in kidney at 40 mg/kg, ip for 4 weeks administered for 5 days consecutively and 2 days without treatment on every week in presence of JQ1 by H and E staining based analysis; type: organism-based; settings: in vivo, 672 h
[15] = tested on: PANC-1; test: Inhibition of colony formation in human PANC-1 cells at 2 uM incubated for 14 days by crystal violet staining based analysis; type: functional, cell-based; settings: time 14.0 day
[16] = tested on: PANC-1; test: Induction of apoptosis in human PANC-1 cells assessed as necrotic cells at 2 uM incubated for 48 hrs in presence of JQ1 by Annexin V-FITC/PI staining based flow cytometry (reference value: 3.09 %); type: functional
[17] = Toxicity in BALB/c mouse xenografted with human PANC-1 cells assessed as pathological changes in heart at 40 mg/kg, ip for 4 weeks administered for 5 days consecutively and 2 days without treatment on every week in presence of JQ1 by H and E staining based analysis; type: organism-based; settings: in vivo, 672 h
[18] = tested on: PANC-1; test: Induction of cell cycle arrest in human PANC-1 cells assessed as accumulation at G1 phase at 1.2 uM incubated for 24 hrs by PI staining based flow cytometry (reference value: 51.70 %); type: functional
[19] = tested on: PANC-1; test: Induction of cell cycle arrest in human PANC-1 cells assessed as accumulation at G1 phase at 2 uM incubated for 24 hrs in presence of JQ1 by PI staining based flow cytometry (reference value: 51.70 %); type: functional
[20] = tested on: PANC-1; test: Antitumor activity against human PANC-1 cells xenografted in BALB/c mouse assessed as inhibition of tumor volume at 40 mg/kg, ip for 4 weeks administered for 5 days consecutively and 2 days without treatment on every week in presence of JQ1; type: functional, organism-based
[21] = Toxicity in BALB/c mouse xenografted with human PANC-1 cells assessed as pathological changes in spleen at 40 mg/kg, ip for 4 weeks administered for 5 days consecutively and 2 days without treatment on every week by H and E staining based analysis; type: organism-based; settings: in vivo, 672 h
[22] = tested on: PANC-1; test: Induction of apoptosis in human PANC-1 cells assessed as viable cells at 0.5 uM incubated for 48 hrs by Annexin V-FITC/PI staining based flow cytometry (reference value: 91.64 %); type: functional; settings: read-out: Activity
[23] = Toxicity in BALB/c mouse xenografted with human PANC-1 cells assessed as pathological changes in lung at 20 mg/kg, ip for 4 weeks administered for 5 days consecutively and 2 days without treatment on every week by H and E staining based analysis; type: organism-based; settings: in vivo, 672 h
[24] = tested on: PANC-1; test: Induction of cell cycle arrest in human PANC-1 cells assessed as accumulation at S phase at 0.5 uM incubated for 24 hrs by PI staining based flow cytometry (reference value: 38.94 %); type: functional
[25] = Toxicity in BALB/c mouse xenografted with human PANC-1 cells assessed as pathological changes in heart at 20 mg/kg, ip for 4 weeks administered for 5 days consecutively and 2 days without treatment on every week by H and E staining based analysis; type: organism-based; settings: in vivo, 672 h
[26] = tested on: PANC-1; test: Inhibition of colony formation in human PANC-1 cells at 1 uM incubated for 14 days by crystal violet staining based analysis; type: functional, cell-based; settings: time 14.0 day
[27] = tested on: PANC-1; test: Induction of apoptosis in human PANC-1 cells assessed as necrotic cells at 1 uM incubated for 48 hrs in presence of OL by Annexin V-FITC/PI staining based flow cytometry (reference value: 3.09 %); type: functional
[28] = tested on: PANC-1; test: Antitumor activity against human PANC-1 cells xenografted in BALB/c mouse assessed as reduction in tumor growth at 20 mg/kg, ip for 4 weeks administered for 5 days consecutively and 2 days without treatment on every week; type: functional, organism-based
[29] = tested on: PANC-1; test: Anti-invasive activity in human PANC-1 cells assessed as increase in invasion inhibition at 2 uM in presence of JQ1 incubated for 48 hrs by Matrigel assay relative to combination of OL/JQ1; type: functional; design: scale not given: the % may be the effect or the level left
[30] = tested on: PANC-1; test: Induction of apoptosis in human PANC-1 cells assessed as increase in Bax level at 2 uM incubated for 48 hrs in presence of JQ1 by Western blot analysis; type: functional, cell-based
[31] = tested on: PANC-1; test: Induction of cell cycle arrest in human PANC-1 cells assessed as decrease in cyclin D1 level at 2 uM incubated for 24 hrs in presence of JQ1 by […]; type: functional

Structure (SMILES)	Activity [1] [%]	Activity [2] [%]	Activity [3]	Activity [4] [%]	Activity [5] [%]	Activity [6]	Activity [7] [%]	Activity [8] [%]	inhibition [9]	Activity [10] [%]	Activity [11]	Activity [12]	viability at 2.5 µM [13] [%]	Activity [14]	inhibition [15]	Activity [16] [%]	Activity [17]	Activity [18] [%]	Activity [19] [%]	inhibition [20]	also measured
O=C(c1cc(Cc2n[nH]c(=O)c3ccccc23)ccc1F)N1CCN(C(=O)C2CC2)CC1 [OLAPARIB]	3.35	2.76	Active	2.91	15.24	Non-toxic	40.8	19.74	Active	25.85	Non-toxic	Non-toxic	89.2	Non-toxic	Active	4.77	Non-toxic	46.59	58.42	Active	Activity [21]: Non-toxic
Cc1sc2c(c1C)C(c1ccc(Cl)cc1)=N[C@@H](CC(=O)OC(C)(C)C)c1nnc(C)n1-2	–	–	–	–	–	–	–	–	–	–	–	–	–	–	–	–	–	–	–	–	viability at 0.5 µM [22]: 82.8%; Activity [23]: Non-toxic; Activity [24]: 35.66%; Activity [25]: Non-toxic; inhibition [26]: Active; Activity [27]: 4.77%; Activity [28]: Active
O=C1CCC(N2C(=O)c3cccc(NC(=O)CNCCCCCCCCCCC(=O)N4CCN(C(=O)c5cc(Cc6n[nH]c(=O)c7ccccc67)ccc5F)CC4)c3C2=O)C(=O)N1 (configuration not stated)	3.83	4.13	Active	4.28	13.63	Non-toxic	43.66	15.94	Active	26.81	Non-toxic	Non-toxic	88.9	Non-toxic	Active	5	Non-toxic	45.72	50.25	Active	Activity [29]: ~11%; Activity [30]: Active; Activity [31]: Active; Activity [21]: Non-toxic

From ChEMBL document CHEMBL6096630, “Enhancing therapeutic efficacy in homologous recombination-proficient pancreatic cancer via the combination of PARP1-PROTAC and a BRD4 inhibitor” (Bioorg Med Chem, 2024)
